Measurements reported in patent publication US20230293526A1, “METHOD FOR TREATING CANCER WITH A REVERSE TRANSCRIPTASE INHIBITOR” (PrimeFour Therapeutics, Inc., priority 2020, published 2023).

System: cancer cell lines
Assay: Cancer cell proliferation activity of representative nucleosides, CellTiterGlo 72 h (Example 7, Tables 8 and 9)
Type: cell-based
Conditions: 72 h
Method: Dose response relationships on cell proliferation was assessed for representative nucleosides on cancer cell lines. Briefly, compound treatment of cells started one day after seeding with a final DMSO concentration of 0.1%, and was performed by nanodrop-dispensing using a Tecan Dispenser. 0.1% DMSO (solvent) and Staurosporine (10 μM) served as high control (100% viability) and low control (0% viability), respectively. Cells were cultured in the appropriate media. For the assays, cells were seeded in white cell culture-treated flat and clear bottom multiwell plates and incubated at 37° C. overnight before compound was added. After incubation for 72 h at 37° C. at 5% or 10% CO2 dependent on the medium, cell plates were equilibrated to room temperature for one hour, CellTiterGlo reagent (Promega) was added and luminescence was measured approximately an hour later using a luminometer.
Raw data were converted into percent cell viability relative to the high and low control, which were set to 100% and 0%, respectively.

IC50 (72 h, 5637, bladder): 0.23 µM
IC50 (CLS439, bladder): 3 µM
IC50 (HS729, muscle): 0.55 µM
IC50 (J82, bladder): 0.84 µM
IC50 (JAR, placenta): > 50 µM
IC50 (MT3, breast): 0.12 µM
IC50 (PC3, prostate): 0.2 µM
IC50 (RD, muscle): 1.4 µM
IC50 (T24, bladder): 0.18 µM
IC50 (Homo sapiens, 22Rv1, 72 h, 22RV1, prostate): 1.04 µM
IC50 (Homo sapiens, 786-0, 72 h, 786O, kidney): 1.61 µM
IC50 (Homo sapiens, A204, 72 h, A204, muscle): 0.03 µM
IC50 (Homo sapiens, A549, 72 h, A549, lung): 0.88 µM
IC50 (Homo sapiens, A673, 72 h, A673, bone): 0.2 µM
IC50 (Homo sapiens, A2780, 72 h, A2780, ovary): 0.64 µM
IC50 (Homo sapiens, A-375, 72 h, A375, skin): 0.57 µM
IC50 (Homo sapiens, A-431, 72 h, A431, skin): 0.3 µM
IC50 (Homo sapiens, ACHN, kidney): 0.71 µM
IC50 (Homo sapiens, ASPC1, 72 h, ASPC1, pancreas): 0.28 µM
IC50 (Homo sapiens, BT-20, 72 h, BT20, breast): 1.47 µM
IC50 (Homo sapiens, BXPC-3, 72 h, BXPC3, pancreas): 0.35 µM
IC50 (Homo sapiens, C-33-A, C33A, endometrial): 0.24 µM
IC50 (Homo sapiens, CAKI-1, 72 h, CAKI1, kidney): 0.11 µM
IC50 (Homo sapiens, COLO 205, 72 h, COLO205, colon): 0.16 µM
IC50 (Homo sapiens, COLO-678, 72 h, COLO678, colon): 10.8 µM
IC50 (Homo sapiens, Ca-Ski, CASKI, endometrial): 5.22 µM
IC50 (Homo sapiens, Caco-2, 72 h, CACO2, colon): > 50 µM
IC50 (Homo sapiens, Calu-6, 72 h, CALU6, lung): 2.54 µM
IC50 (Homo sapiens, DLD-1, 72 h, DLD1, colon): 0.77 µM
IC50 (Homo sapiens, DU-145, 72 h, DU145, prostate): 0.33 µM
IC50 (Homo sapiens, EFO-21, 72 h, EFO21, ovary): 1.19 µM
IC50 (Homo sapiens, EJ-28, 72 h, EJ28, bladder): 2.34 µM
IC50 (Homo sapiens, Granta-519, 72 h, GRANTA-519, hematological): 0.08 µM
IC50 (Homo sapiens, HCT-15, 72 h, HCT15, colon): 0.81 µM
IC50 (Homo sapiens, HCT-116, 72 h, HCT116, colon): 0.55 µM
IC50 (Homo sapiens, HEK293, 72 h, HEK293, kidney): 12.7 µM
IC50 (Homo sapiens, HL-60, 72 h, HL-60, hematological): 0.54 µM
IC50 (Homo sapiens, HT-29, 72 h, HT29, colon): 1.06 µM
IC50 (Homo sapiens, HT-1080, 72 h, HT1080, connective tissue): 0.35 µM
IC50 (Homo sapiens, HeLa, endometrial): 0.75 µM
IC50 (Homo sapiens, HepG2, 72 h, HEPG2, liver): 2.67 µM
IC50 (Homo sapiens, Hs-578T, HS578T, breast): 1.79 µM
IC50 (Homo sapiens, IGROV-1, 72 h, IGROV1, ovary): 1.37 µM
IC50 (Homo sapiens, IMR-90, 72 h, IMR90, lung): 2.73 µM
IC50 (Homo sapiens, JEG-3, 72 h, JEG3, placenta): 1.9 µM
IC50 (Homo sapiens, JIMT-1, 72 h, JIMT1, breast): 0.21 µM
IC50 (Homo sapiens, K562, 72 h, K-562, hematological): 1.61 µM
IC50 (Homo sapiens, Kasumi 1, 72 h, KASUMI-1, hematological): 0.22 µM
IC50 (Homo sapiens, L-363, 72 h, L-363, hematological): > 50 µM
IC50 (Homo sapiens, LoVo, colon): 0.44 µM
IC50 (Homo sapiens, MCF7, 72 h, MCF7, breast): > 50 µM
IC50 (Homo sapiens, MDA-MB-231, 72 h, MDAMB231, breast): 0.13 µM
IC50 (Homo sapiens, MDA-MB-435, 72 h, MDAMB435, skin): 2.12 µM
IC50 (Homo sapiens, MDA-MB-436, 72 h, MDAMB436, breast): 0.36 µM
IC50 (Homo sapiens, MDA-MB-468, 72 h, MDAMB468, breast): 1.2 µM
IC50 (Homo sapiens, MG-63, 72 h, MG63, bone): 0.57 µM
IC50 (Homo sapiens, MHH-ES-1, 72 h, MHHES1, bone): 0.21 µM
IC50 (Homo sapiens, MIA PaCa-2, 72 h, MIAPACA2, pancreas): 1.93 µM
IC50 (Homo sapiens, MINO, hematological): 0.07 µM
IC50 (Homo sapiens, MV4-11, 72 h, MV4-11, hematological): 0.6 µM
IC50 (Homo sapiens, NCI-H23, 72 h, NCI-H23, lung): 1.34 µM
IC50 (Homo sapiens, NCI-H82, 72 h, NCIH82, lung): > 50 µM
IC50 (Homo sapiens, NCI-H292, 72 h, NCIH292, lung): 0.79 µM
IC50 (Homo sapiens, NCI-H460, 72 h, NCIH460, ung): 2.05 µM
IC50 (Homo sapiens, OVCAR-3, 72 h, OVCAR3, ovary): 0.58 µM
IC50 (Homo sapiens, OVCAR-4, 72 h, OVCAR4, ovary): 4.18 µM
IC50 (Homo sapiens, PANC-1, 72 h, PANC1, pancreas): 3.43 µM
IC50 (Homo sapiens, PLC-PRF-5, 72 h, PLCPRF5, liver): > 50 µM
IC50 (Homo sapiens, Panc1005, 72 h, PANC1005, pancreas): 0.65 µM
IC50 (Homo sapiens, Ramos, hematological): 0.17 µM
IC50 (Homo sapiens, SAOS-2, 72 h, SAOS2, bone): 0.11 µM
IC50 (Homo sapiens, SF-268, 72 h, SF268, brain): 0.35 µM
IC50 (Homo sapiens, SF-295, 72 h, SF295, brain): 1.13 µM
IC50 (Homo sapiens, SK-BR-3, 72 h, SKBR3, breast): 0.65 µM
IC50 (Homo sapiens, SK-HEP1, 72 h, SKHEP1, liver): 0.24 µM
IC50 (Homo sapiens, SK-LMS-1, 72 h, SKLMS1, uterus): 3.74 µM
IC50 (Homo sapiens, SK-MEL-5, 72 h, SKMEL5, skin): > 50 µM
IC50 (Homo sapiens, SK-MEL-28, 72 h, SKMEL28, skin): 2.63 µM
IC50 (Homo sapiens, SK-N-AS, SKNAS, brain): 4.41 µM
IC50 (Homo sapiens, SK-N-SH, SKNSH, brain): > 50 µM
IC50 (Homo sapiens, SK-OV-3, 72 h, SKOV3, ovary): 0.89 µM
IC50 (Homo sapiens, SNB-75, 72 h, SNB75, brain): 0.84 µM
IC50 (Homo sapiens, SU-DHL10, 72 h, SU-DHL-10, hematological): 0.5 µM
IC50 (Homo sapiens, SU-DHL-6, 72 h, SU-DHL-6, hematological): 0.8 µM
IC50 (Homo sapiens, SW-620, 72 h, SW620, colon): 2.64 µM
IC50 (Homo sapiens, TE-671, 72 h, TE671, muscle): 1.75 µM
IC50 (Homo sapiens, THP-1, 72 h, THP-1, hematological): 0.97 µM
IC50 (Homo sapiens, U2OS, bone): 5.32 µM
IC50 (Homo sapiens, U-87 MG, U87MG, brain): 0.5 µM
IC50 (Homo sapiens, UMUC3, 72 h, UMUC3, bladder): 1.16 µM
IC50 (Homo sapiens, UO-31, 72 h, UO31, kidney): 0.66 µM
IC50 (Homo sapiens, WSU-NHL, hematological): 0.22 µM
IC50 (NCI-H358M, NCIH358M, lung): 0.04 µM
IC50 (PBMC, hematological): 0.35 µM
IC50 (RD-ES, RDES, bone): 1.62 µM
Structure (SMILES): N#C[C@]1(CO)O[C@@H](n2ccc(N)nc2=O)C[C@@H]1O [compound 29]
